Values of other authors, collected in patent US7361646B2, “Methods for treating gastroesophageal reflux disease” (Corcept Therapeutics, Inc., priority 2002, dated 2008).

Tests used:
[1] = target: T1, glucocorticoid (GR) receptors (Homo sapiens, UniProt P04150); details: result in words
T1 sequence (P04150 1-777): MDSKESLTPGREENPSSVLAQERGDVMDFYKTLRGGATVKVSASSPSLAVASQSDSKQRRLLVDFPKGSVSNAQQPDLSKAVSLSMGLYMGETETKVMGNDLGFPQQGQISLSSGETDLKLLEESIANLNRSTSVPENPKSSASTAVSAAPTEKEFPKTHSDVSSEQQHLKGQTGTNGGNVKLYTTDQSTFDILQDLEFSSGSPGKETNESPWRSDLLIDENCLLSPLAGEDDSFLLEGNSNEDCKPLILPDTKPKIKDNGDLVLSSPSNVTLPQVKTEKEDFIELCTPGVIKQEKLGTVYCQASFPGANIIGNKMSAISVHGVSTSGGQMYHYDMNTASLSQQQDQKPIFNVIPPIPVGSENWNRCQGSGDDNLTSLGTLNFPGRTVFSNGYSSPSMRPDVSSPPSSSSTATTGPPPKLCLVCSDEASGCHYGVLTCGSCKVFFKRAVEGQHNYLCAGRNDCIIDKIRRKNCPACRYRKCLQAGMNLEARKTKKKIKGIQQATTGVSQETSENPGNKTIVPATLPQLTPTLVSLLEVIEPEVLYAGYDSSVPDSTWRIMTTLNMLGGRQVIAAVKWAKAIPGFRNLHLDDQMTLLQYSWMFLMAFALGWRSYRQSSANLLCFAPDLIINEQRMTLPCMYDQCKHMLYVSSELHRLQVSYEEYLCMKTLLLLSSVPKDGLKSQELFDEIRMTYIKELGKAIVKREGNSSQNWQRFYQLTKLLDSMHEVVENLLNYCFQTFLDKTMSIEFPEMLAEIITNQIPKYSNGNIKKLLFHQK

[2] = in one study (Kawai)
progesterone receptor = target: T2, progesterone receptor (Homo sapiens, UniProt P06401); details: result in words
T2 sequence (P06401 1-933): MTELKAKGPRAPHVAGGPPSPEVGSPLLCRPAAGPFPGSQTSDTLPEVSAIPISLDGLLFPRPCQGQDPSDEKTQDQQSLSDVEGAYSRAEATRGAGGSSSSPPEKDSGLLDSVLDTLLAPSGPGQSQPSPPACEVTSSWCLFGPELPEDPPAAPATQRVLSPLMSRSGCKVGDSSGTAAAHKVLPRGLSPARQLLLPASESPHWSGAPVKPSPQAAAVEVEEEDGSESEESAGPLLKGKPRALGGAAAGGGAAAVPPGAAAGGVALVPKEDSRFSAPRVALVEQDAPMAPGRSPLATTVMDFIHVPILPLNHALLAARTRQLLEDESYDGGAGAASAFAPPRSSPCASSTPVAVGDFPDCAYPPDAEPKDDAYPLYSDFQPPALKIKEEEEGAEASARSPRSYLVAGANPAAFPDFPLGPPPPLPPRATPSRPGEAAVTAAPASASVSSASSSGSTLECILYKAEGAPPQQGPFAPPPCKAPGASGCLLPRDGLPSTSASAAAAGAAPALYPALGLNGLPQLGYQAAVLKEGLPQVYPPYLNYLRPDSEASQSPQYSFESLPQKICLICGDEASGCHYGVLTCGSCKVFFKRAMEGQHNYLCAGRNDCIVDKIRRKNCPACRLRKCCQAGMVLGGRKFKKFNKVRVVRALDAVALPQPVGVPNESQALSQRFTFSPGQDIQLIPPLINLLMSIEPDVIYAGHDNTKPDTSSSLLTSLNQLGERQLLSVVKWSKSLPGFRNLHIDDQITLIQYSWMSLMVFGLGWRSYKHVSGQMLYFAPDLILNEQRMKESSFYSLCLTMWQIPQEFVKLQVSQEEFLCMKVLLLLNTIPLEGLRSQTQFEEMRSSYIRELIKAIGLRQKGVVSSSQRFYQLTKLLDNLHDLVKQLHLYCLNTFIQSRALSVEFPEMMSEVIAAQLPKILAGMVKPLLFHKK

[3] = target: T3, Mineralocorticoid receptors (MRs) (Homo sapiens, UniProt P08235); details: MR versus GR
T3 sequence (P08235 1-984): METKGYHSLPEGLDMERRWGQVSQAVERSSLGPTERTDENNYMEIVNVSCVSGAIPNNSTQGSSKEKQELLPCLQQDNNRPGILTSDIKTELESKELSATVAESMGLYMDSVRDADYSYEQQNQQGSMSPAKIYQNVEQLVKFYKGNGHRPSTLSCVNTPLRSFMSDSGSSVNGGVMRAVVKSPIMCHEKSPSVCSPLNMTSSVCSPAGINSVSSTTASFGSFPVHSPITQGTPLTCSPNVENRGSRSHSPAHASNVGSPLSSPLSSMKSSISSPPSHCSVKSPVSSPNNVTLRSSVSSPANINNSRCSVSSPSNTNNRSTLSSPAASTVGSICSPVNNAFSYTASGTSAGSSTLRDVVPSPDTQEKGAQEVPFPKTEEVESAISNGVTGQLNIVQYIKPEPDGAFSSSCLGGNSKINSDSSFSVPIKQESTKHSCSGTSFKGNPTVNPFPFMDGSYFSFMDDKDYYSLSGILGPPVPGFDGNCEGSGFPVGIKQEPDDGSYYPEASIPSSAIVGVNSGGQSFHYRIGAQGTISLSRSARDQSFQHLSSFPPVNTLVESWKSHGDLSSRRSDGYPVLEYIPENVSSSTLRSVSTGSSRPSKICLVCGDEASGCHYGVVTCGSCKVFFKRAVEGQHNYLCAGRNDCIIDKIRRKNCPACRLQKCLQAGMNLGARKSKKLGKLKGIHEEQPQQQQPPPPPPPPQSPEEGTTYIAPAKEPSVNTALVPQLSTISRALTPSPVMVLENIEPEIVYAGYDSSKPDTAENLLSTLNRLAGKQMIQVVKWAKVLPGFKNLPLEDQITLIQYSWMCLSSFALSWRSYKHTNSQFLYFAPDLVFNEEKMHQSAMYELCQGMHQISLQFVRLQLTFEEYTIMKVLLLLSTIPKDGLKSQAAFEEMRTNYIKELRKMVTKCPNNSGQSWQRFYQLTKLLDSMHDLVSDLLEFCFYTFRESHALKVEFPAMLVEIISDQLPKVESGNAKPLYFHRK

SMILES | GR antagonist effect [1] | share of the daily dose excreted in the urine [2] | progesterone receptor antagonist effect (progesterone receptor) | affinity of MRs for cortisol relative to GRs for glucocorticoids [3]
CC#C[C@]1(O)CC[C@H]2[C@@H]3CCC4=CC(=O)CCC4=C3[C@@H](c3ccc(N(C)C)cc3)C[C@@]21C [Mifepristone, (11β,17β) 11[4(dimethylamino)phenyl]-17hydroxy-17(1 propynyl)estra-4,9dien-3one] | powerful antagonist | less than 0.5 % of the daily dose | powerful antagonist | 
CC#C[C@]1(O)CC[C@H]2[C@@H]3CCC4=CC(=O)CCC4=C3[C@@H](c3ccc(OCCN(C)C)cc3)C[C@@]21C [RU009, 11β-(4-dimethylaminoethoxyphenyl)-17α-propynyl-17β-hydroxy-4,9-estradien-3-one] | shown to have GR antagonist effects |  |  | 
C[C@]12CCC(=O)C=C1CC[C@@H]1[C@@H]2[C@@H](O)C[C@@]2(C)[C@H]1CC[C@]2(O)C(=O)CO [cortisol] |  |  |  | ten-fold higher affinity
